Test results published in PMC7188855, “Nucleic acid recognition and antiviral activity of 1,4-substituted terphenyl compounds mimicking all faces of the HIV-1 Rev protein positively-charged α-helix” (Scientific Reports, 2020).
Like-named read-outs stand apart in the source and are kept apart here.

Legend:
[1] = target: TARh hairpin containing the HIV-1 Tat-binding UCU bulge; assay: Fluorescence intensity binding to control TARh hairpin; conditions: for Kd(TARh)/Kd(IIBh): low ionic strength, 10 mM sodium phosphate pH 6.6, uses Kd1
From the text: To evaluate the specificity of subdomain IIB recognition, we measured binding to a control TARh hairpin containing the HIV-1 Tat-binding UCU bulge[23] (Fig. 1D). […] We further assessed specificity by duplicating the IIBh-23fl association experiments in the presence of a 10-fold molar excess of tRNA^Lys or a 26-base pair LTRd DNA duplex. The binding curves of the compounds were affected by the presence of competitive tRNA^Lys and to a lesser extent by LTRd (Figs. 4A, S4 and S5 and Tables 2 and S2).
These experiments measured association to IIBh-23fl or TARh-8fl RNA molecules labelled with fluorescein at extrahelical loop nucleotides U23 and U8, respectively (Fig. 1D), and were carried out under two different ionic conditions in a Victor X5 plate reader, using excitation and emission wavelengths of 485 and 520 nm, respectively. We also attempted to measure association to an alternative IIBh hairpin containing 2-aminopurine instead of adenine at unpaired loop IIB residue A19[21], but all terphenyls fluoresced at the excitation wavelength of this fluorophore. IIBh-23fl or TARh-8fl (at 100 nM concentration) was equilibrated for 5 minutes after each ligand addition in a buffer containing either 10 mM sodium phosphate pH 6.6 and 0.1 mM EDTA or 10 mM HEPES pH 7.5, 200 mM KCl and 2 mM MgCl2. In addition to the TARh specificity control, the RNA and DNA specificity of the IIBh interactions was assessed by duplicating the experiments in the presence of a 10-fold molar excess (1 μM) of either tRNA^Lys or DNA duplex LTRd. The equilibrium dissociation constants Kd were determined by fitting the fluorescence intensity curves with DYNAFIT[40]. We used one-site, two independent-sites and two interacting-sites binding models for all curves, and the best model was automatically selected by model discrimination analysis, except where indicated. The final graphs were plotted with Prism. All fluorescence intensity experiments were performed at least two times for each compound and condition.

[2] = tested on: LTRc, core region of the HIV-1 LTR promoter; assay: EMSA of association to LTRc DNA; format: binding; conditions: 20 nM LTRc duplex; 10 mM HEPES pH 7.5, 300 mM KCl, 1 mM MgCl2, 0.5 mM EDTA
Procedure: (§1) The experiments monitoring RRE-Rev inhibition utilized 78 nM full-length RRE and 1.32 μM full-length Rev dissolved in 10 mM HEPES pH 7.5, 300 mM KCl, 1 mM MgCl2 and 0.5 mM EDTA binding buffer, and increasing concentrations of each compound up to 50 μM[21],[39]. The reactions were incubated at room temperature for 20 minutes and loaded onto 8% polyacrylamide gels with TB running buffer. Gels were run at 4 °C for 1–4 hours at 150 V, and the bands were stained with SYBR gold and quantified with Quantity One 4.1 analysis software. Experiments monitoring binding to the 58-base pair HIV-1 LTRc core segment utilized 20 nM LTRc duplex dissolved in the same binding buffer, and increasing concentrations of each compound. The reactions were similarly incubated and loaded onto 20% polyacrylamide gels with TB running buffer. The gels were run at 4 °C for 3.5 hours at 150 V, and the bands were stained and quantified as described above. The specificity of LTRc association was evaluated by duplicating the experiments in the presence of a 100-fold molar excess of DNAd duplex (28-fold base-pair molar excess). In all cases, we monitored the disappearance of the band corresponding to high-order RRE-Rev complexes or free LTRc, and 50% response RC50 values were determined with Prism by fitting the data to a sigmoidal inhibitory model: I−Imin=ImaxC/1+C/RC50 where I is the intensity of the band corresponding to LTRc or high-order RRE-Rev species at compound concentration C, Imax the best-fit value for maximum intensity, and Imin the minimum intensity obtained at the highest concentration of inhibitor. All EMSA experiments were repeated three times for each compound.

[3] = Cellular viability (CellTiterGlo) in mock infected cells; format: cell-based; conditions: human, mock infected MT-2 cells
Procedure: (§2) The methodology used to perform and analyse these experiments has been reported elsewhere[7],[21],[22]. Briefly, infectious supernatants were obtained from transfection of plasmid pNL4.3-Ren on 293 T cells, MT-2 cells were infected with these supernatants in the presence of the compounds, and anti-HIV activity quantification was performed 48 h post-infection by determining luciferase activity in cell lysates compared to a non-treated control (100%). Cellular viability was evaluated in mock infected cells similarly treated with the same concentrations of compounds using the CellTiterGlo (Promega) assay.

[4] = target: RRE subdomain IIB-Rev34–50; assay: Fluorescence anisotropy displacement of the IIBh-Rev34–50 interaction; conditions: read-out: IC50, RRE subdomain IIB-Rev34–50, 60 nM IIBh, 10 nM frevp, 100 mM KCl, 20 mM NaCl, 2 mM MgCl2
Procedure: These experiments were conducted in a Victor X5 (PerkinElmer) plate reader as described before[7],[21], using 10 nM frevp and 60 nM IIBh. […] Each fluorescence anisotropy experiment was repeated at least two times.

[5] = tested on: full length proviral HIV-1 (NL4.3-luc); assay: Transfection of full-length proviral HIV-1 (NL4.3-luc) in MT-2 cells; format: cell-based; conditions: Human immunodeficiency virus 1, MT2, 48 h, read-out: EC50 transfection HIV-1
[6] = tested on: HTLV-1 LTR promoter; assay: Transfection of pLTR(HTLV)-luc in MT-2 cells; conditions: Primate T-lymphotropic virus 1, MT2, 48 h, read-out: EC50 transfection HTLV LTR
Procedure: (§3) To further assess the mechanism of antiviral action of the compounds, we checked whether they also interfered with the regulatory sequences of HTLV-1, a closely related retrovirus.
(§4) MT-2 cells were transfected with plasmids containing a luciferase reporter gene whose expression was under the control of the full length proviral HIV-1 (NL4.3-luc), the HIV-1 LTR promoter (pLTR-luc), or the HTLV-1 LTR promoter (pLTR(HTLV)-luc). After transfection, cells were treated with different compound concentrations, and activity quantification was performed 48 h later by determining luciferase activity in cell lysates as described[7],[21],[22].

[7] = tested on: high-order RRE-Rev; assay: EMSA of full-length RRE-Rev ribonucleoprotein formation; format: binding, HIV-1; conditions: 78 nM RRE, 1.32 μM Rev, 300 mM KCl, 1 mM MgCl2, band of high-order complexes
From the text: After the high-affinity interaction between RRE subdomain IIB and the Rev34–50 helix of the first Rev monomer is established, the RRE-Rev ribonucleoprotein is formed by the incorporation of additional Rev units binding to further sites in the RRE (Fig. 3B, right)[9],[10],[13]. Using an electrophoretic mobility shift assay (EMSA) involving full-length RRE and Rev, we also evaluated whether 1,4-terphenyl compounds were capable of interfering with the formation of the ribonucleoprotein. […] The effect was particularly prominent for high-order complexes (containing a greater number of Rev monomers), but the inhibition of low-order complexes by 1d was also detected at concentrations consistent with the IC50 value measured in the IIB-Rev34–50 displacement experiment. Compounds 1b and 3c exerted a weaker effect on the RRE-Rev complex, in agreement with the results obtained in the displacement experiments monitored by fluorescence anisotropy (Fig. 3B and Table 1).
as §1

[8] = tested on: HIV-1 LTR promoter; assay: Transfection of pLTR-luc in MT-2 cells; conditions: Human immunodeficiency virus 1, MT2, 48 h, read-out: EC50 transfection HIV-1 LTR
Procedure: as §3, §4

[9] = tested on: HIV-1; assay: Cellular HIV-1 infection assay (NL4.3-Ren, MT-2 cells); format: cell-based; conditions: Human immunodeficiency virus 1, MT2, 48 h post-infection
Procedure: as §2

[10] = 10 mM sodium phosphate pH 6.6, 0.1 mM EDTA, read-out: Kd (TARh), one-site or first-site Kd1
[11] = higher ionic strength, 10 mM HEPES pH 7.5, 200 mM KCl, 2 mM MgCl2
[12] = higher ionic strength, 10 mM HEPES pH 7.5, 200 mM KCl, 2 mM MgCl2, read-out: Kd (TARh), Table S2

Compound | Kd [1, 10] [µM] | Kd(TARh)/Kd(IIBh), Table S2 [1, 11] | Kd [1, 12] [µM] | Kd(TARh)/Kd(IIBh) [1] | association to LTRc (EMSA) [2] | CC50 at 48 h [3] [µM] | IC50 [4] [µM] | EC50 [5] [µM] | EC50 [6] [µM] | IC50 [7] [µM] | EC50 [8] [µM] | EC50 [9] [µM] | Kd ([1]; 10 mM sodium phosphate pH 6.6, 0.1 mM EDTA, two-site model, read-out: Kd (TARh), second-site Kd2 (in brackets)) [µM]
COc1cc(CCN)c(-c2cc(C)c(-c3cc(CCN)c(OC)cc3CCN)cc2C)cc1CCN [Compound 1a] | 12 | 3.0 | 13 | 12 | associated to LTRc at low μM concentrations | > 100 | 14 | 12.2 | 16.7 | 6.8 | 7.2 | 10.6 | 
Cc1cc(-c2cc(CCN)ccc2CCN)c(C)cc1-c1cc(CCN)ccc1CCN [Compound 1d] | 22 | 4.3 | 32 | 25 | associated to LTRc at low μM concentrations | > 100 | 47 | 6 | 24.9 | 3 | 3.2 | 57.9 | 22
Cc1cc(-c2cc(CCN)ccc2CCN)c(C)cc1-c1cccc(CCN)c1 [Compound 3c] | 78 |  | > 50 | 12 | associated only very weakly | > 100 | > 100 | 15.4 | 16.4 | > 50 | 3.32 | 14.1 | 
